Assays:
Type in all cases: in vivo, Solanum tuberosum
[1] = test system: Umatilla seed-tubers; assay: Example 2: etiolated sprout development and tuber quality, Umatilla; settings: 4.7 mmol/kg potato tubers, 25 days
Procedure: Methods: Ten-month-old Ranger Russet, Umatilla and Russet Burbank seed-tubers were taken from 4° C. storage and treated with trans-2-hexenal in 9.2-L glass desiccators as described in Example 1. The tubers were exposed to trans-2-hexenal for 0, 12 and 24 hours at 23° C. at a concentration of 4.7 mmol/kg potato tubers. Regardless of exposure time, all tubers remained enclosed in the chambers for the entire 24 hour period. This was accomplished by introducing the trans-2-hexenal at zero-time (into the 24 hour treatment desiccator) and after 12 hour incubation (into the 12 hour treatment desiccator) through a septum in the top of the closed desiccator. The treated tubers were planted into moistened peat/perlite/soil potting mix and placed in the dark at 24° C. to stimulate sprouting. The experiment was set up in a randomized complete block design (5 replicates) with treatments (3 cultivars×3 exposure times) arranged factorially. Effects of trans-2-hexenal exposure and cultivar on etiolated sprout development and tuber quality were assessed 25 days after removal from the 4° C. storage.

[2] = test system: Russet Burbank seed-tubers; assay: Example 3: potato tuber respiration (CO2 in outflow, infra-red gas analyzer); settings: 0.96 mmol/kg
Procedure: Methods: Eleven-month-old Russet Burbank seed-tubers were taken from a 4° C. storage area and treated with 250 μL of trans-2-hexenal in a 9.2 liter (L) glass desiccator (0.96 mmol/kg potato tubers) for 12 hours at 23° C. The trans-2-hexenal was pipetted onto Whatman #1 filter paper in a glass petri dish (5.5 cm diameter) inside the desiccator. Control tubers were enclosed in a desiccator without trans-2-hexenal. Following treatment, the tubers were enclosed in 1 L […] chambers (3 tubers per chamber) that were placed at 15° C. A continuous airflow (approximately 80 mL/min; 21% O2, 79% N2) was established around the tubers through inlet and outlet ports in the lid of each chamber. Respiration rates were determined at four hour intervals over a 28 day storage period by quantifying CO2 in the outflow from each chamber with a LI-COR model 6262 infra-red gas analyzer (LI-COR Inc., Lincoln Nebr.). The experiment was set up in a randomized complete block design (5 replicates) with two treatments (control and trans-2-hexenal-treated). The effect of trans-2-hexenal exposure on the development of etiolated sprouts was assessed 28 days after removal from the 4° C. storage.

[3] = test system: Russet Burbank seed tubers; assay: Example 4: sprout inhibition by aldehyde vapors, 26 days of sprouting; settings: for Average Sprout Length / External Pit Rating (1-4 scale) / Sprout Fresh Weight: 12 hours vapor, 26 days at 18° C.
Procedure: Methods: Eleven-month-old Russet Burbank seed tubers were taken from a 4° C. storage area and exposed to trans-2-hexenal (0.6-4.3 mmol/kg), trans-2-heptenal (0.6-3.8 mmol/kg) and trans-2-octenal (0.5-2.5 mmol/kg) vapors separately in 3.9 L glass containers for 12 hours at 23° C. The aldehydes were applied to filter paper inside petri dishes within each jar. Control tubers were enclosed in a glass container without any aldehyde. Sprouts were ‘peeping’ (approximately 3 mm in length) at the time of treatment. Following treatment, tubers were placed at 18° C. (95% relative humidity) in the dark to sprout for 26 days. The experiment was set up in a randomized complete block design (5 replicates) with chemicals and concentrations arranged factorially. Effects of the aliphatic aldehydes on the development of etiolated sprouts were documented at 20 days (photographically) and 26 days of sprouting.

[4] = test system: Russet Burbank and Ranger Russet seed-tubers; assay: Example 5: sprout inhibition by C5 to C9 trans-2 aldehydes over prolonged storage (17 weeks); settings: 0.5, 0.75 and 1.0 mmol/kg tuber, 24 hours; 17 weeks at 8° C., 95% RH
Procedure: (46° F.), 95% relative humidity (RH), for 17 weeks. As described more fully in Example 5, four-month-old tubers (previously stored at 4° C.) were treated (for 24 h) with different concentrations of the aldehydes in mid January. The treated tubers were then stored in the dark for 120 days (17 weeks).
Methods: Four-month-old Russet Burbank and Ranger Russet seed-tubers were taken from a 4° C. storage area and treated (Jan. 10, 2001) separately with 0, 0.5, 0.75 and 1.0 mmol/kg tuber of trans-2-pentenal, trans-2-hexenal, trans-2-heptenal, trans-2-octenal, and trans-2-nonenal in 3.9 L glass jars. The volume of inhibitor required to achieve the above rates was pipetted onto filter paper discs inside the lids of each jar. The concentration of inhibitors in the headspace of the jars was equal at 0.16 mmol/L. The tubers were enclosed in the jars and thus exposed to inhibitor vapor for 24 hours at 23° C. Control tubers were enclosed in a glass jar without any aldehyde. Following treatment, tubers were removed from the jars and placed at 8° C. (46° F.) (95% relative humidity) in the dark to sprout for 120 days (17 weeks). The experiment was set up in a randomized complete block design (5 replicates) with chemicals and concentrations arranged factorially. Effects of the aliphatic aldehydes on the development of etiolated sprouts were documented photographically and quantitatively (sprout number and fresh weight) after 120 days of storage.

CCC/C=C/C=O [trans-2-hexenal]
Average Sprout Length ([1]; 12 h exposure): 0 cm/tuber | External Pit Rating (1-4 scale) ([1]; 12 h exposure): 3.7 | Soft Rot Lesions ([1]; 12 h exposure): 2.2 no/tuber | Sprout Fresh Weight ([1]; 12 h exposure): 0 g/tuber | Average Sprout Length ([1]; 24 h exposure): 0 cm/tuber | External Pit Rating (1-4 scale) ([1]; 24 h exposure): 4.0 | Soft Rot Lesions ([1]; 24 h exposure): 2.6 no/tuber | Sprout Fresh Weight ([1]; 24 h exposure): 0 g/tuber | time after treatment at which respiration reached a level equal to the untreated tubers ([2]; 12 hours, storage at 15° C.): ≤ 32 h | respiration lower than control tubers ([2]; by the end of the study (27 day storage at 15° C.)): 2.5 fold | respiration rate greater than untreated tubers ([2]; immediately following the 12 hour treatment period): 38% | Average Sprout Length ([3]; 0.63 mmol/kg): 0.2 cm/tuber | External Pit Rating (1-4 scale) ([3]; 0.63 mmol/kg): 1.4 | Sprout Fresh Weight ([3]; 0.63 mmol/kg): 0.04 g/tuber | Average Sprout Length ([3]; 1.33 mmol/kg): 0 cm/tuber | External Pit Rating (1-4 scale) ([3]; 1.33 mmol/kg): 2.0 | Sprout Fresh Weight ([3]; 1.33 mmol/kg): 0 g/tuber | Average Sprout Length ([3]; 2.06 mmol/kg): 0 cm/tuber | External Pit Rating (1-4 scale) ([3]; 2.06 mmol/kg): 2.6 | Sprout Fresh Weight ([3]; 2.06 mmol/kg): 0 g/tuber | Average Sprout Length ([3]; 2.50 mmol/kg): 0 cm/tuber | External Pit Rating (1-4 scale) ([3]; 2.50 mmol/kg): 3.5 | Sprout Fresh Weight ([3]; 2.50 mmol/kg): 0 g/tuber | Average Sprout Length ([3]; 4.34 mmol/kg): 0 cm/tuber | External Pit Rating (1-4 scale) ([3]; 4.34 mmol/kg): 2.8 | Sprout Fresh Weight ([3]; 4.34 mmol/kg): 0 g/tuber | external pitting (in words) ([3]; lowest concentration): minimal | inhibition of sprout development (in words) [4]: inhibited sprouting in a concentration-dependent manner

From patent US6855669B2, “Use of α,β unsaturated aliphatic aldehydes and ketones to inhibit potato tuber sprouting” (Washington State University Research Foundation, priority 2000, dated 2005)
